Columns and labels:
MAT2A homodimer = target: T1, MAT2A homodimer (Homo sapiens, UniProt P31153); experiment: MAT2A biochemical assay (phosphate release, PiColorLock Gold); conditions: recombinant MAT2A homodimer, 60 min pre-incubation, 25° C.; read-out: Enzyme Inhibition
T1 construct: inferred from Ni sepharose purification and imidazole elution; made in house; host or cells: SF9 insect cells, recombinant baculovirus (Bac to Bac, pFASTBAC1)
Protocol: Mat2A protein was expressed by recombinant baculovirus in SF9 infected cells using the Bac to Bac system cloned into the pFASTBAC1 vector (Invitrogen, Carlsbad, CA). Recombinant MAT2A was isolated from the cell lysate of 150 g of infected cells using HP Ni sepharose column chromatography. Recombinant MAT2A homodimer was eluted with 250 and 500 mM imidazole, and fractions containing MAT2A were identified by sodium dodecyl sulfate polyacrylamide gel electrophoresis and pooled.
For determination of the inhibitory potency of compounds against the MAT2A homodimer, protein was diluted to 4 μg/mL in assay buffer (50 mM Tris, pH 8.0, 50 mM KCl, 15 mM MgCl2, 0.3 mM EDTA, 0.005% [w/v] bovine serum albumin [BSA]). Test compound was prepared in 100% dimethyl sulfoxide (DMSO) at 50× the desired final concentration. A 1 μL volume of compound dilution was added to 40 μL of enzyme dilution and the mixture was allowed to equilibrate for 60 minutes at 25° C. The enzymatic assay was initiated by the addition of 10 μL of substrate mix (500 μM ATP, pH 7.0, 400 μM L-methionine in 1× assay buffer), and the mixture was incubated for a further 60 minutes at 25° C. The reaction was halted and the liberated phosphate released by the enzyme in stoichiometric amounts by the production of S-adenosyl methionine (SAM) was measured using the PiColorLock Gold kit (Innova Biosciences, UK). Absolute product amounts were determined by comparison to a standard curve of potassium phosphate buffer, pH 8.0.

[1] = tested on: MAT2A activity (SAM) in HCT116 cells with deleted MTAP gene; experiment: Cellular assay of target engagement (SAM) by LC-MS/MS; format: cell-based; conditions: Homo sapiens, HCT-116; HCT116 MTAP −/−, 72 hrs; read-out: Cell 72 h SAM Inhibition (MTAP −/−)
Protocol: Measurement of MAT2A activity in cells was made by direct quantitation of the abundance of the product of its enzymatic activity, SAM. Cancer cells were treated with candidate MAT2A inhibitors for a suitable incubation period, and the cells were then lysed using a reagent which quenched any further enzyme activity. Soluble metabolites including SAM were collected and SAM itself was directly measured from the lysate using quantitative LC-MS/MS.
A typical assay was performed using an HCT116 human colon carcinoma cell line which was genetically engineered to delete the MTAP gene (commercially available from Horizon Discovery). This cell line was utilized because it was determined that loss of the MTAP gene predicts sensitivity to MAT2A inhibitors. Cells were plated in 96-well dishes at appropriate cell density. Following 24 hours, cells were then treated with the candidate MAT2A inhibitor. Prior to addition to cells, the compound was first serially diluted in 100% DMSO, typically as a 3-fold serial dilution starting at 500× top dose with 10 dose points including DMSO only control. Compound was then transferred to a working stock plate in cell culture media by adding 5 μL of compound in DMSO to 495 μL of cell culture media. This working stock was then added to cells via a further 5-fold dilution, by adding 25 μL of working stock to 100 μL of cells in culture media. Following compound addition, cells were incubated at 37° C./5% CO2 for 72 hrs.
To quantitate SAM levels following compound treatment, cells were gently washed once in ammonium carbonate buffer (75 mM at pH 7.4), placed on dry ice, and lysed with metabolite extraction buffer (80% cold methanol and 20% water (v/v) with acetic acid at 1M final concentration with 200 ng/mL deuterated d3-SAM as internal control). Following centrifugation at 4° C. at 3,200 rpm for 30 minutes, the supernatant was collected and stored at −80° C. until analysis by Liquid Chromatography with tandem Mass Spectrometry (LC-MS/MS). LC-MS/MS analysis was performed using an API6500 Mass Spectrometer (Sciex, Framingham, MA, USA) operating in positive ion spray mode and equipped with a Waters UPLC Acquity (Waters, Milford, MA, USA) BEH Amide column. Multiple Reaction Monitoring data was acquired for SAM and the d3-SAM standard, using a mass transition pair at m/z 399.2→250.1 and 402.2→250.1, respectively. In a typical LC-MS/MS analysis, the initial flow rate was 0.5 ml/min of 25% mobile phase A (acetonitrile and water at 5:95 (v/v) with 1% formic acid and 10 mM ammonium acetate) and 75% mobile phase B (acetonitrile and water at 95:5 (v/v) with 1% formic acid and 10 mM ammonium acetate), 0.2-0.5 minutes with 75%-35% mobile phase B, 25%-65% mobile phase A, at 0.5 min 65% mobile phase A and 35% mobile phase B, 1.0-1.1 minutes with 35%-75% mobile phase B, 65%-25% mobile phase A, at 1.1 min 25% mobile phase A and 75% mobile phase B with a total run time of 1.5 minutes.

HCT116 MTAP−/− = experiment: Inhibition of cellular proliferation (Cell Titer Glo), HCT116 MTAP-/-; format: cell-based; conditions: Homo sapiens, HCT-116, 96 h, 4 days, read-out: 4 Day Relative Growth Inhibition (MTAP −/−)
Protocol: (§1) Test compound impact on cancer cell growth was assessed by treating cancer cells with compound for 4 days and then measuring proliferation using an ATP-based cell proliferation readout (Cell Titer Glo, Promega Corporation).
(§2) In a typical assay an isogenic pair of HCT116 human colon carcinoma cell lines which vary only in MTAP deletion status (HCT116 MTAP+/+ and HCT116 MTAP−/−) were plated in 96-well dishes at appropriate cell density. Following 24 hours, cells were then treated with the candidate MAT2A inhibitor. Prior to addition to cells, the compound was first serially diluted in 100% DMSO, typically as a 3-fold serial dilution starting at 500× top dose with 10 dose points including DMSO only control. Compound was then transferred to a working stock plate in cell culture media by adding 5 μL of compound in DMSO to 495 μL of cell culture media. This working stock was then added to cells via a further 5-fold dilution, by adding 25 μL of working stock to 100 μL of cells in culture media. Following compound addition, cells were incubated at 37° C./5% CO2 for 4 days.
(§3) To measure inhibition of cellular proliferation, cells were allowed to equilibrate to room temperature for 30 minutes, and were then treated with 125 μL of Cell Titer Glo reagent. The plate was then covered with aluminum foil and shaken for 15 minutes to ensure complete mixing and full cell lysis. Luminescent signal was then measured using a plate-based luminometer Veritas version 1.9.2 using ATP standard curve to confirm assay reproducibility from run to run. This luminescence measure was converted to a proliferation index by subtracting from each data point the ATP luminescence signal measured from a bank (no cells) well and dividing by the ATP luminescence signal measured in 0.2% DMSO control well adjusted for signal in blank well. Compound activity was then represented as a percentage change in proliferation relative to a within-plate DMSO control against log 10 of compound concentration in molar (M) units.

HCT116 MTAP+/+ = experiment: Inhibition of cellular proliferation (Cell Titer Glo), HCT116 MTAP+/+; format: cell-based; conditions: Homo sapiens, HCT-116, 96 h, 4 days, read-out: 4 Day Relative Growth Inhibition (MTAP +/+)
Protocol: as §1, §2, §3

T1 sequence (P31153 whole entry): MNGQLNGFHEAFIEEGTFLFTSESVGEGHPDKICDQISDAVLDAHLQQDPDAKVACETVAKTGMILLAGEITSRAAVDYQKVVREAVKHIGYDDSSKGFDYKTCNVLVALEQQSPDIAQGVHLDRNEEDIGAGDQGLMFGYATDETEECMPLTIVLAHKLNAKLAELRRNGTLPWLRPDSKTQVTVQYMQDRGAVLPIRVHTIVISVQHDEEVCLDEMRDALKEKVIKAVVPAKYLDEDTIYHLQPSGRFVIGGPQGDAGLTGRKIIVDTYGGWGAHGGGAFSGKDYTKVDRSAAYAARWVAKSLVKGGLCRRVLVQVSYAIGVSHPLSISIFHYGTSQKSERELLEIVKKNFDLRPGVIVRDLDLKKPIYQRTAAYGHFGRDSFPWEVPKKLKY

IC50 (MAT2A homodimer) | IC50 [1] | IC50 (HCT116 MTAP−/−) | IC50 (HCT116 MTAP+/+) | Structure (SMILES)
< 100 nM | 100 to 1000 nM | 100 to 1000 nM | ≥ 1000 nM | O=c1c(-c2ccc(OC(F)F)nc2)c2nc(OCC(F)F)ccc2nn1-c1ccc2ncsc2c1 [Example 148]
< 100 nM | < 100 nM | < 100 nM | ≥ 1000 nM | Cn1cc2cc(-n3nc4ccc(OCC(F)F)nc4c(-c4ccc(OC(F)(F)F)cc4)c3=O)ccc2n1 [Example 109]
< 100 nM | < 100 nM | 100 to 1000 nM | 100 to 1000 nM | O=c1c(-c2ccc(OC(F)F)cc2)c2nc(OCC(F)F)ccc2nn1-c1ccc2nccnc2c1 [Example 192]
< 100 nM | < 100 nM | 100 to 1000 nM | ≥ 1000 nM | O=c1c(-c2ccc(OC(F)F)cc2)c2nc(OCC(F)F)ccc2nn1-c1ccc2nccn2c1 [Example 170]
< 100 nM | < 100 nM | < 100 nM | < 100 nM | O=c1c(-c2ccc(OC(F)F)cc2)c2nc(OCC(F)F)ccc2nn1-c1ccc2ncsc2c1 [Example 169]
< 100 nM | < 100 nM | < 100 nM | 100 to 1000 nM | [2H]C([2H])([2H])Oc1c2cc(-n3nc4ccc(OCC(F)F)nc4c(-c4ccc(OC(F)F)cc4)c3=O)ccc2nn1C [Example 175]
100 to 1000 nM | 100 to 1000 nM | ≥ 1000 nM | ≥ 1000 nM | O=c1c(-c2ccc(OC(F)F)cc2)c2nc(OCC(F)F)ccc2nn1-c1ccc(F)cc1 [Example 191]
< 100 nM | < 100 nM | < 100 nM | ≥ 1000 nM | Cn1cnc2ccc(-n3nc4ccc(OCC(F)F)nc4c(-c4ccc(OC(F)F)cc4)c3=O)cc21 [Example 167, 6-(2,2-difluoroethoxy)-4-(4-(difluoromethoxy)phenyl)-2-(1-methyl-1H-benzo[d]imidazol-6-yl)pyrido[3,2-c]pyridazin-3(2H)-one]
< 100 nM | < 100 nM | < 100 nM | ≥ 1000 nM | [2H]C([2H])([2H])C([2H])([2H])Oc1ccc2nn(-c3ccc4nn(C)cc4c3)c(=O)c(-c3ccc(OC(F)F)cc3)c2n1 [Example 161]
< 100 nM | < 100 nM | < 100 nM | ≥ 1000 nM | CCOc1ccc2nn(-c3ccc4ncsc4c3)c(=O)c(-c3ccc(OC(F)F)cc3)c2n1 [Example 145]
< 100 nM | < 100 nM | < 100 nM | ≥ 1000 nM | COc1nc2ccc(-n3nc4ccc(OCC(F)F)nc4c(-c4ccc(OC(F)F)cc4)c3=O)cc2n1C [Example 172]
< 100 nM | < 100 nM | < 100 nM | ≥ 1000 nM | Cn1cc2cc(-n3nc4ccc(OCC(F)F)nc4c(-c4ccc(Br)cc4)c3=O)ccc2n1 [Example 200, 4-(4-bromophenyl)-6-(2,2-difluoroethoxy)-2-(2-methyl-2H-indazol-5-yl)pyrido[3,2-c]pyridazin-3(2H)-one]

The next lines start with the molecule.

Structure (SMILES) | IC50 (MAT2A homodimer) | IC50 [1] | IC50 (HCT116 MTAP−/−) | IC50 (HCT116 MTAP+/+)
CCNc1ccc2nn(-c3ccc4nn(C)cc4c3)c(=O)c(-c3ccc(Cl)cc3)c2n1 [Example 103, 4-(4-chlorophenyl)-6-(ethylamino)-2-(2-methyl-2H-indazol-5-yl)pyrido[3,2-c]pyridazin-3(2H)-one] | < 100 nM | < 100 nM | < 100 nM | ≥ 1000 nM
CCOc1ccc2nn(-c3ccc4nn(C)cc4c3)c(=O)c(-c3ccc(OC(F)(F)F)cc3)c2n1 [Example 104] | < 100 nM | 100 to 1000 nM | 100 to 1000 nM | ≥ 1000 nM
Cn1cc2cc(-n3nc4ccc(OC5CC5)nc4c(-c4ccc(Cl)cc4)c3=O)ccc2n1 [Example 113] | < 100 nM | < 100 nM | 100 to 1000 nM | ≥ 1000 nM
Cn1cc2cc(-n3nc4ccc(OCC(F)F)nc4c(-c4ccncc4)c3=O)ccc2n1 [Example 134] | < 100 nM | 100 to 1000 nM | ≥ 1000 nM | ≥ 1000 nM
Cn1cc2cc(-n3nc4ccc(N5CCCC5)nc4c(-c4ccc(OC(F)F)cc4)c3=O)ccc2n1 [Example 163] | < 100 nM | > 1000 nM | ≥ 1000 nM | ≥ 1000 nM
CCNc1ccc2nn(-c3ccc4nn(C)cc4c3)c(=O)c(-c3ccc(C(F)(F)F)nc3)c2n1 [Example 316] | < 100 nM | < 100 nM | < 100 nM | ≥ 1000 nM
COC1CC=C(c2c(=O)n(-c3ccc4nn(C)cc4c3)nc3ccc(OCC(F)F)nc23)CC1 (centres unmarked) [Example 152] | < 100 nM | < 100 nM | < 100 nM | 100 to 1000 nM
Cc1ccc(-c2c(=O)n(-c3ccc4nn(C)cc4c3)nc3ccc(NCC(F)F)nc23)cn1 [Example 318] | < 100 nM | < 100 nM | < 100 nM | ≥ 1000 nM
Cn1cc2cc(-n3nc4cc(F)c(NCC(F)(F)F)nc4c(-c4ccc(OC(F)F)cc4)c3=O)ccc2n1 [Example 197] | < 100 nM | < 100 nM | < 100 nM | ≥ 1000 nM
Cn1cc2cc(-n3nc4ccc(NC5CC5)nc4c(-c4ccc(Cl)cc4)c3=O)ccc2n1 [Example 155] | < 100 nM | < 100 nM | < 100 nM | ≥ 1000 nM
CCCc1ccc2nn(-c3ccc4nn(C)cc4c3)c(=O)c(-c3ccc(OC(F)F)cc3)c2n1 [Example 205, 4-(4-(difluoromethoxy)phenyl)-2-(2-methyl-2H-indazol-5-yl)-6-propylpyrido[3,2-c]pyridazin-3(2H)-one] | < 100 nM | < 100 nM | < 100 nM | ≥ 1000 nM
